Tests used:
[1] = biological target: Human CB1R (Cannabinoid receptor 1) (Homo sapiens (Human), UniProt P21554); assay: CB-1 in vitro cAMP assay (HTRF), inverse agonism; assay type: cell-based; details: mean where tested more than once
[2] = biological target: Human CB2R (Cannabinoid receptor 2) (Homo sapiens (Human), UniProt P34972); assay: CB-2 in vitro cAMP assay (HTRF), inverse agonism; assay type: cell-based; details: mean where tested more than once
Sequence of Human CB2R (Cannabinoid receptor 2) (P34972 whole entry): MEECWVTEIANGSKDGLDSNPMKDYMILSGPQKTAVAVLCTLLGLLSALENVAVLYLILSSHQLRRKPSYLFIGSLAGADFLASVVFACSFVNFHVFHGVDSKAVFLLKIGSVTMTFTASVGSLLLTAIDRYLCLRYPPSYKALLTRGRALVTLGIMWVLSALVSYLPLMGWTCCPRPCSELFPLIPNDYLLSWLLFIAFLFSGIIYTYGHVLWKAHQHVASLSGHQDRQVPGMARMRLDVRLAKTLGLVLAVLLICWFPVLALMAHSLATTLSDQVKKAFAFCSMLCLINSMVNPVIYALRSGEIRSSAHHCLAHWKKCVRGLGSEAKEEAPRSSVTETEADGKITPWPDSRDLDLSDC

Sequence of Human CB1R (Cannabinoid receptor 1) (P21554 whole entry): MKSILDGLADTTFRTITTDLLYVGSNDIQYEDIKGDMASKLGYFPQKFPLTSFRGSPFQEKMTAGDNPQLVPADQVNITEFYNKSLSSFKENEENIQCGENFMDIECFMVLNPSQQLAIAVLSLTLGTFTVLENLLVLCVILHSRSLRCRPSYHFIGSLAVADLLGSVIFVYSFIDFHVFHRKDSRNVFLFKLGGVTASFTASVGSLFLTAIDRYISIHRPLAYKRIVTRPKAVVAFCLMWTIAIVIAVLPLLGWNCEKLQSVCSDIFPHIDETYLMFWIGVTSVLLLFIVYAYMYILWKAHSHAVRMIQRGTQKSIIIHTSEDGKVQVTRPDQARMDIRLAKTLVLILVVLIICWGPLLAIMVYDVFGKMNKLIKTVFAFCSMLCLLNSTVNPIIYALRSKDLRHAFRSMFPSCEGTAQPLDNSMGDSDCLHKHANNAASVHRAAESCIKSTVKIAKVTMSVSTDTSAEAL

SMILES | EC50 [1] [nM] | EC50 [2] [nM]
COc1ccc(C(O)(c2ccc(Cl)cc2)c2ccc3nc(OC(C)(C)C)cc(/C=C/c4ccccc4)c3c2)cc1 (stereo not drawn) [Compound 512, (E)-(2-(tert-butoxy)-4-styrylquinolin-6-yl)(4-chlorophenyl)(4-methoxyphenyl)methanol] | > 10000 | > 10000
CCOC(=O)CC(=O)N1CCC(Nc2cc(=O)[nH]c3ccc(C(c4ccc(Cl)cc4)c4ccc(Cl)cc4)cc23)CC1 [Compound 95, Ethyl 3-[4-({6-[bis(4-chlorophenyl)methyl]-2-oxo-1,2-dihydroquinolin-4-yl}amino)piperidin-1-yl]-3-oxopropanoate] | 13 | 3650
CC(C)(C)OC(=O)N1CC=C(c2cc(=O)[nH]c3ccc(C(c4ccc(Cl)cc4)c4ccc(Cl)cc4)cc23)CC1 [Compound 13, tert-Butyl 4-{6-[bis(4-chlorophenyl)methyl]-2-oxo-1,2-dihydroquinolin-4-yl}-3,6-dihydropyridine-1(2H)-carboxylate] | 403 | > 10000
Cn1c(=O)cc(NC2CCN(S(=O)(=O)C(F)(F)F)CC2)c2cc(C(c3ccc(Cl)cc3)c3nccs3)ccc21 (stereo not drawn) [Compound 89, 6-[(4-chlorophenyl)(1,3-thiazol-2-yl)methyl]-1-methyl-4-[[1-(trifluoromethane)sulfonylpiperidin-4-yl]amino]-1,2-dihydroquinolin-2-one] | 14 | 9900
O=C(O)COc1cc(C(c2ccc(Cl)cc2)c2ccc(Cl)cc2)cc2c(NC3CCN(S(=O)(=O)C(F)(F)F)CC3)cc(=O)[nH]c12 [Compound 545] | 4900 | > 10000
NC(=O)CCC(=O)N1CCC(Nc2cc(=O)[nH]c3ccc(C(c4ccc(Cl)cc4)c4ccc(Cl)cc4)cc23)CC1 [Compound 112, 4-[4-({6-[Bis(4-chlorophenyl)methyl]-2-oxo-1,2-dihydroquinolin-4-yl}amino)piperidin-1-yl]-4-oxobutanamide] | 302 | > 10000
Clc1ccc(C(c2ccc3nccc(/C=C/c4ccccc4)c3c2)c2nccs2)cc1 (stereo not drawn) [Compound 511, (E)-2((4-chlorophenyl)(4-styrylquinolin-6-yl)methyl)thiazole] | 136 | > 10000
OC(c1ccc(Cl)cc1)(c1ccc(Cl)cc1)c1ccc2nccc(/C=C/c3ccccc3)c2c1 [Compound 501, (E)-bis(4-chlorophenyl)(4-styrylquinolin-6-yl)methanol] | > 10000 | > 10000

Other lines, results leading:

EC50 [1] [nM] | EC50 [2] [nM] | SMILES
38 | > 10000 | CNC(=O)COc1cc(NC2CCN(S(=O)(=O)C(F)(F)F)CC2)c2cc(C(c3ccc(Cl)cc3)c3ccc(Cl)cc3)ccc2n1 [Compound 533, 2-({6-[Bis(4-chlorophenyl)methyl]-4-({1-[(trifluoromethyl)sulfonyl]-piperidin-4-yl}amino)quinolin-2-yl}oxy)-N-methylacetamide]
96 | > 21000 | CC(C)(C)OC(=O)NCCCCOc1cc(C(c2ccc(Cl)cc2)c2ccc(Cl)cc2)cc2c(NC3CCN(S(=O)(=O)C(F)(F)F)CC3)ccnc12 [Compound 539, tert-butyl (4-((6-(bis(4-chlorophenyl)methyl)-4-((1-((trifluoromethyl)sulfonyl)piperidin-4-yl)amino)quinolin-8-yl)oxy)butyl)carbamate]
7 | > 10000 | O=c1cc(NC2CCCCC2)c2cc(C(c3ccc(Cl)cc3)c3ccc(Cl)cc3)ccc2[nH]1 [Compound #71, 6-(bis(4-chlorophenyl)methyl)-4-(cyclohexylamino)quinolin-2(1H)-one]
884 | 340 | OC(c1ccc(Cl)cc1)(c1ccc2nccc(/C=C/c3ccccc3)c2c1)c1cscn1 (stereo not drawn) [Compound 517, (E)-(4-chlorophenyl)(4-styrylquinolin-6-yl)(thiazol-4-yl)methanol]
